Reference: patent publication US20120252855A1, “Methods For Treating Degenerative Diseases/Injuries” (priority 2003, published 2012)

Experiments:
[1] = tested on: Human marrow progenitor CD34+ cells; test: CD34+ Progenitor Cell Proliferation Assay Experiment 2; format: cell-based
Protocol: Human marrow progenitor CD34+ cells were washed in SFEM, counted and brought to 2×10^5/mL in 24-well plates and incubated for 7 days in the presence of compound or rhTpo. Dilutions of 3′-{N′-[1-(3,4-Dimethylphenyl)-3-methyl-5-oxo-1,5-dihydropyrazol-4-ylidene]hydrazino}-2′-hydroxybiphenyl-3-carboxylic acid bis-(monoethanolamine) were made in distilled water to equal 0, 0.3, 1 and 3 uM final concentration. Dilutions of 3-{N′-[1-(3,4-dimethylphenyl)-3-methyl-5-oxo-1,5-dihydropyrazol-4-ylidene]hydrazino}-2-hydroxy-3′-tetrazol-5-ylbiphenyl disodium salt were made in DMSO to equal 0, 0.3, 1 and 3 uM final concentration in 0.1% DMSO. Recombinant human TPO at a final concentration of 100 ng/mL was used as a positive control. At day 7, cells were counted and flow cytometry was performed using FITC-CD34.

[2] = tested on: early CD34+ progenitor cells from human bone marrow; test: CD34+ Progenitor Cell Proliferation Assay; format: cell-based
Protocol: Compounds are tested for their ability in stimulating the survival and proliferation of early CD34+ progenitor cells from human bone marrow. In this assay, purified human CD34+ progenitor cells are incubated in liquid culture with test compounds for up to 7 days and the number of cells expressing the early stem cell marker CD34 are then measured by flow cytometry and compared to untreated cells (see Liu et al. Bone Marrow Transplantation. 24:247-52, 1999).

`CC1=NN(c2ccc(C)c(C)c2)C(=O)C1=NNc1cccc(-c2cccc(-c3nnn[nH]3)c2)c1O.[Na].[Na]` [3-{N′-[1-(3,4-dimethylphenyl)-3-methyl-5-oxo-1,5-dihydropyrazol-4-ylidene]hydrazino}-2-hydroxy-3′-tetrazol-5-ylbiphenyl disodium salt] was tested, and the “increase in the number of CD34+ cells” value ([1]; compound at 3 uM in 0.1% DMSO, 7 days, FITC-CD34 flow cytometry) was 3.6 fold.
`CC1=NN(c2ccc(C)c(C)c2)C(=O)C1=NNc1cccc(-c2cccc(C(=O)O)c2)c1O.NCCO.NCCO` [3′-{N′-[1-(3,4-Dimethylphenyl)-3-methyl-5-oxo-1,5-dihydropyrazol-4-ylidene]hydrazino}-2′-hydroxybiphenyl-3-carboxylic acid bis-(monoethanolamine)] was tested, and the “increase in the number of CD34+ cells” value ([1]; compound at 3 uM, dilutions in distilled water, 7 days, FITC-CD34 flow cytometry) was 3 fold.
`CC1=NN(c2ccc(C(F)(F)F)cc2)C(=O)C1=NNc1cccc(-c2cccc(C(=O)O)c2)c1O` [3′-{N′-[3-methyl-5-oxo-1-(4-trifluoromethylphenyl)-1,5-dihydropyrazol-4-ylidene]hydrazino}-2′-hydroxybiphenyl-3-carboxylic acid] was tested, and the “increase in the number of CD34+ cells in liquid culture over vehicle controls” value ([2]; compound at 3 uM, days 2, 5 and 7, flow cytometry) was “up to 2 fold”.
In the case of “rhTpo: Recombinant human TPO, used as a positive control at 100 ng/mL”, the “increase in the number of CD34+ cells” value ([1]; rhTpo 100 ng/ml positive control, experiment with the bis-(monoethanolamine) salt, day 7) is reported as 15 fold, the “increase in the number of CD34+ cells” value ([1]; rhTpo 100 ng/ml positive control, experiment with the tetrazole disodium salt, day 7) is reported as 3.4 fold and the “increase in the number of CD34+ cells” value ([2]; rhTpo 100 ng/ml, same experiment as E1) is reported as 2 fold.
